Results on two compounds are retold here after patent publication US11795510B2, “Identification of epigenomic reprogramming in cancer and uses thereof” (The Johns Hopkins University, priority 2016, dated 2023).

Common to all, as to format: cell-based, human
One test relates to A38Lg compared to A38Per. The test is described as follows: MTT cell viability assay. The protocol:
(§1) Tissue samples and cell lines were previously collected from PDAC patients by rapid autopsy, sequenced-validated, and monitored for mycoplasma as previously described. Low passage (2-17) rapid autopsy cell lines were cultured at 37° C. in DMEM with 10% fetal bovine serum (FBS, Gibco). For MTT assays, 15,000 cells/well were plated into 96 well plates in triplicate, treated 12 hours later, and assayed after 24 hr (glucose responses) or 6 days (chemotherapy) with CellTiter96 (Promega). For glucose response assays, nutrient-deplete DMEM (no glucose, glutamine, pyruvate, or serum) was used with addition of glucose as indicated. For glucose-dependent oxidative stress analysis, cells plated in triplicate and grown to 80% confluence followed by incubation in nutrient-deplete DMEM containing 10% dialyzed FBS with or without 10 mM glucose and 1 mM H2O2 for 24 hours. Cells were then washed with PBS, trypsinized, and viable cells counted with a hemocytometer. Glucose uptake and lactate secretion were measured with a YSI 7100 Bioanalyzer as described in the supplementary methods. For ^13C-1,2 glucose tracing and steady state metabolite profiling, the Q Exactive MS (QE-MS; Thermo Scientific) coupled to liquid chromatography (LC Ultimate 3000 UHPLC) was used for metabolite separation and detection as previously described. Detailed conditions are provided in the supplementary methods.

Test [1] deals with distant metastatic subclones. As to the kind of experiment: Glucose-dependent oxidative stress analysis (viable cell counts), distant metastatic subclones. Particulars: 1 mM H2O2, 24h, glucose not present in the media. Here is the method: as §1
A further test relates to normal HPDE cells. As to the kind of experiment: Glucose-dependent oxidative stress analysis (viable cell counts), HPDE. Conditions: 1 mM H2O2, 24h, with or without 10 mM glucose. The protocol:
as §1

Test [2] deals with local-regional PDAC samples. The test is described as follows: Glucose-dependent oxidative stress analysis (viable cell counts), local-regional PDAC. Particulars: 1 mM H2O2, 24h, with or without 10 mM glucose. The protocol: as §1
Test [3] relates to global chromatin modifications in peritoneal subclone (A38Per), normal cells (HPDE, fibroblast) and local-regional PDACs. As to the kind of experiment: Western blots of histone modifications, peritoneal subclone, normal cells and local-regional PDACs. Conditions: peritoneal subclone. The protocol:
Histones were acid extracted as described and western blots performed on 3.5 ug histones, which were checked by Ponceau stains prior to western blot to ensure equal loading. Densitometry was performed with ImageJ software. RNA was extracted with Trizol reagent (Life Technologies) and isopropanol precipitated. Genomic DNA was purified with MasterPure DNA extraction reagents (Epicenter). Immunohistochemistry, H&E staining, and immunofluorescence on formalin-fixed, paraffin-embedded (FFPE) tissue microarray sections (TMAs) were performed according to standard procedures.
RNAi experiments were performed with siRNA transfections (Oligofectamine, Life Technologies) using negative control siRNA (Sigma, SIC001) and pre-designed siRNA oligonucleotides against indicated genes in parallel (Sigma, PGD: SASI_Hs02 00334150, CDH2: SASI_Hs01_00153995, TOP2B: SASI_Hs02_00311874). siRNAs against mutant KRAS^G12V (CUACGCCAACAGCUCCAAC) (SEQ ID NO:1) were custom designed. Cells were incubated with siRNAs for 4 days after transfection and harvested. For drug treatments in 2-D, cells were grown to 70-80% confluency and treated for 3 days with 250 uM 6AN or DMSO negative control.
In general terms: Immunoblotting shows a protein as a band on a membrane.

Entries after “also recorded” stand apart in the source; their conditions may differ.

`OO` [H2O2]: in the test with A38Lg compared to A38Per, the “cell viability (MTT) under H2O2-mediated oxidative stress” value is given as “highly resistant; also recorded: remarkably resistant”. The entries for the “normalized cell counts after H2O2” value (in test [1]; with normal HPDE cells; in test [2]) were “sensitive to H2O2 when glucose was not present”, “sensitive to H2O2 under either glucose condition” and “resistant to H2O2 irrespective of glucose availability”, respectively.

With `Nc1ccn([C@@H]2O[C@H](CO)[C@@H](O)C2(F)F)c(=O)n1` [gemcitabine, Gemcitabine], the “induction of loss of methylation or gain of acetylation (reprogrammed histone modifications) by chemotherapy” value in test [3] is on record as “did not induce”. Besides, in the test with A38Lg compared to A38Per (assayed after 6 days), the “cell viability (MTT) under gemcitabine” value is on record as “highly resistant; also recorded: completely resistant”.
